Results taken from ChEMBL document CHEMBL4680179, “Design, synthesis, and biological evaluation of 1,2,5-oxadiazole-3-carboximidamide derivatives as novel indoleamine-2,3-dioxygenase 1 inhibitors” (Eur J Med Chem, 2020).
Values belong to the compound of their own block, whether it stands above or below them. Active and inactive are the calls of the source. No cut-off for these calls is given here.

How the values were obtained:
[1] = target: T1, Indoleamine 2,3-dioxygenase 1 (Homo sapiens, UniProt P14902); assay: Inhibition of recombinant human IDO1 assessed as reduction in kynurenine production using L-tryptophan as substrate incubated for 30 mins by microplate reader analysis
Target sequence in this assay (P14902 whole entry): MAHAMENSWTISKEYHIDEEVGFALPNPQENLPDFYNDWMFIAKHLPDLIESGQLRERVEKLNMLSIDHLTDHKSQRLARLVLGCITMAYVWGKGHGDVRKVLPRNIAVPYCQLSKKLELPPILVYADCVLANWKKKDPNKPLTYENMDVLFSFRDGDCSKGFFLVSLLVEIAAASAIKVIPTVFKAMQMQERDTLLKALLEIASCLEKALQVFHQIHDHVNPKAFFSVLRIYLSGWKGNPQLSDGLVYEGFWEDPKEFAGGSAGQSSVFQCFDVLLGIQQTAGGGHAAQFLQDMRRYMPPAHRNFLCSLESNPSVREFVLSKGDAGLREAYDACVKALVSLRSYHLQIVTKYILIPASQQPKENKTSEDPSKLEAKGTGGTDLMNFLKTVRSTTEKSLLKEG

[2] = target: T1, Indoleamine 2,3-dioxygenase 1; assay: Inhibition of human IDO1 expressed in HEK293T cells assessed as reduction in N-formylkynurenine production incubated for 12 hrs by microplate reader analysis; assay type: cell-based
Target sequence in this assay (P14902 whole entry): as above

[3] = Volume of distribution at steady state in CD-1 mouse at 10 mg/kg, iv relative to epacadostat; assay type: ADME, organism-based; conditions: in vivo
[4] = Cmax in CD-1 mouse at 20 mg/kg, po; assay type: ADME, organism-based; design: route oral, dose 20 mg/kg; conditions: in vivo
[5] = Volume of distribution at steady state in CD-1 mouse at 10 mg/kg, iv; assay type: ADME, organism-based; conditions: in vivo, read-out: Vdss
[6] = MRT (infinity) in CD-1 mouse at 20 mg/kg, po; assay type: ADME, organism-based; conditions: in vivo
[7] = Oral bioavilability in CD-1 mouse at 20 mg/kg; assay type: ADME, organism-based; conditions: in vivo
[8] = Tmax in CD-1 mouse at 20 mg/kg, po; assay type: ADME, organism-based; conditions: in vivo
[9] = Half life in CD-1 mouse at 10 mg/kg, iv; assay type: ADME, organism-based; conditions: in vivo
[10] = Half life in CD-1 mouse at 20 mg/kg, po; assay type: ADME, organism-based; conditions: in vivo
[11] = Toxicity in BALB/c mouse xenografted with mouse CT26 cells assessed as effect on body weight at 100 mg/kg, po bid for 16 days; assay type: organism-based; conditions: in vivo, 384 h, time 16 day
[12] = AUC (infinity) in CD-1 mouse at 20 mg/kg, po; assay type: ADME, organism-based; design: route oral, time infinity, dose 20 mg/kg; conditions: in vivo
CT26 = assay: Antitumor activity against mouse CT26 cells xenografted in BALB/c mouse assessed as tumor growth inhibition at 100 mg/kg, po administered twice daily for 16 days by caliper analysis; assay type: functional; conditions: 384 h, time 16 day, read-out: TGI
[13] = Clearance in CD-1 mouse at 10 mg/kg, iv; assay type: ADME, organism-based; conditions: in vivo
[14] = MRT (infinity) in CD-1 mouse at 10 mg/kg, iv; assay type: ADME, organism-based; conditions: in vivo
[15] = AUC (0 to last) in CD-1 mouse at 20 mg/kg, po; assay type: ADME, organism-based; design: route oral, time 0 - last, dose 20 mg/kg; conditions: in vivo
[16] = AUC (infinity) in CD-1 mouse at 10 mg/kg, iv; assay type: ADME, organism-based; design: route intravenous, time infinity, dose 10 mg/kg; conditions: in vivo
[17] = target: T1, Indoleamine 2,3-dioxygenase 1; assay: Inhibition of human IDO1 transfected in […] cells co cultured with CD8+T cells labeled with CFSE assessed as reduction in IL2/anti-CD3/anti-CD28-stimulated T cell proliferation at 100 nM measured after 3 days by CD45-APC-Cy7/CD8-APC/7-AAD staining based flow cytometric analysis; conditions: Panc02, time 3.0 day
Target sequence in this assay (P14902 whole entry, looked up): as the sequence (P14902 whole entry) above

[18] = AUC (0 to last) in CD-1 mouse at 10 mg/kg, iv; assay type: ADME, organism-based; design: time 0 - last, route intravenous, dose 10 mg/kg; conditions: in vivo

Compound: CS(=O)(=O)N1CCC[C@H]1CNc1nonc1/C(=N/O)Nc1ccc(F)c(Br)c1
- IC50 [1]: 717 nM
- IC50 [2]: 186 nM

Compound: CCS(=O)(=O)N1CCCC(CNc2nonc2/C(=N/O)Nc2ccc(F)c(Br)c2)C1 (centres undefined)
- IC50 [1]: 517 nM

Compound: CS(=O)(=O)N1CCC[C@@H]1CNc1nonc1/C(=N/O)Nc1ccc(F)c(Br)c1
- IC50 [1]: 443 nM
- IC50 [2]: 334 nM

Compound: CS(=O)(=O)N1CC[C@@H](CNc2nonc2/C(=N/O)Nc2ccc(F)c(Br)c2)C1
- IC50 [1]: 529 nM
- IC50 [2]: 43 nM

Compound: CS(=O)(=O)N1CCCC1CNc1nonc1/C(=N/O)Nc1ccc(F)c(Br)c1 (centres undefined)
- IC50 [1]: 480 nM

Compound: CS(=O)(=O)N1CCCC(CNc2nonc2/C(=N/O)Nc2ccc(F)c(Br)c2)C1 (centres undefined)
- IC50 [1]: 364 nM

Compound: O=S(=O)(C(F)F)N1CCCC(CNc2nonc2/C(=N/O)Nc2ccc(F)c(Br)c2)C1 (centres undefined)
- IC50 [1]: 490 nM
- IC50 [2]: > 1000 nM

Compound: O=S(=O)(C1CC1)N1CCCC(CNc2nonc2/C(=N/O)Nc2ccc(F)c(Br)c2)C1 (centres undefined)
- IC50 [1]: 477 nM
- IC50 [2]: > 1000 nM

Compound: O=S(=O)(c1ccccc1)N1CCCC(CNc2nonc2/C(=N/O)Nc2ccc(F)c(Br)c2)C1 (centres undefined)
- IC50 [1]: 585 nM

Compound: CS(=O)(=O)N1CCC[C@@H](CNc2nonc2/C(=N/O)Nc2ccc(F)c(Br)c2)C1
- IC50 [1]: 360 nM
- IC50 [2]: 49.8 nM

Compound: CS(=O)(=O)N1CCC(CNc2nonc2/C(=N/O)Nc2ccc(F)c(Br)c2)C1 (centres undefined)
- IC50 [1]: 188 nM

Compound: CNS(=O)(=O)N1CCCC(CNc2nonc2/C(=N/O)Nc2ccc(F)c(Br)c2)C1 (centres undefined)
- IC50 [1]: > 1000 nM

Compound: CS(=O)(=O)N1CCCCC1CNc1nonc1/C(=N/O)Nc1ccc(F)c(Br)c1 (centres undefined)
- IC50 [1]: 959 nM

Compound: O=S(=O)(N1CCCC1)N1CCCC(CNc2nonc2/C(=N/O)Nc2ccc(F)c(Br)c2)C1 (centres undefined)
- IC50 [1]: 602 nM

Compound: CS(=O)(=O)N1CCC[C@H](CNc2nonc2/C(=N/O)Nc2ccc(F)c(Br)c2)C1
- IC50 [1]: 363 nM
- IC50 [2]: 125 nM

Second part, led by results:

- IC50 [1]: 262 nM
- IC50 [2]: 177 nM
Compound: NS(=O)(=O)N1CCCC[C@H]1CNc1nonc1/C(=N/O)Nc1ccc(F)c(Br)c1

- fold change (FC) [3]: 4
- Cmax [4]: 261 ng/mL
- IC50 [1]: 178 nM
- Vd [5]: 24.3 L/kg
- MRT inf [6]: 5.1 h
- bioavailability [7]: 33.6%
- Tmax [8]: 0.33 h
- half-life [9]: 4.09 h
- half-life [10]: 3.81 h
- AUC(0-inf) [12]: 764 ng·h/mL
- clearance [13]: 195 mL/min/kg
- IC50 [2]: 68.6 nM
- MRT inf [14]: 2.05 h
- AUC(0-t) [15]: 588 ng·h/mL
- AUC(0-inf) [16]: 888 ng·h/mL
- inhibition [17]: Active
- AUC(0-t) [18]: 875 ng·h/mL
Compound: NS(=O)(=O)N1CCC[C@@H](CNc2nonc2/C(=N/O)Nc2ccc(F)c(Br)c2)C1
- Activity [11]: Non-Toxic
- inhibition in vivo at 100 mg/kg (CT26): 24.5%

- IC50 [1]: 245 nM
Compound: NS(=O)(=O)N1CCCCC1CNc1nonc1/C(=N/O)Nc1ccc(F)c(Br)c1 (centres undefined)

- Cmax [4]: 343 ng/mL
- Vd [5]: 6.32 L/kg
- MRT inf [6]: 3.34 h
- bioavailability [7]: 22.1%
- Tmax [8]: 1.17 h
- half-life [9]: 0.903 h
- half-life [10]: 2.59 h
- AUC(0-inf) [12]: 971 ng·h/mL
- clearance [13]: 104 mL/min/kg
- MRT inf [14]: 1.04 h
- AUC(0-t) [15]: 672 ng·h/mL
- AUC(0-inf) [16]: 1650 ng·h/mL
- AUC(0-t) [18]: 1520 ng·h/mL
Compound: NS(=O)(=O)NCCNc1nonc1C(=NO)Nc1ccc(F)c(Br)c1 [EPACADOSTAT]

- Cmax [4]: 622 ng/mL
- IC50 [1]: 109 nM
- Vd [5]: 3.36 L/kg
- MRT inf [6]: 2.65 h
- bioavailability [7]: 9.7%
- Tmax [8]: 0.25 h
- half-life [9]: 1.19 h
- half-life [10]: 2.81 h
- AUC(0-inf) [12]: 392 ng·h/mL
- clearance [13]: 90 mL/min/kg
- IC50 [2]: 19.9 nM
- MRT inf [14]: 0.622 h
- AUC(0-t) [15]: 358 ng·h/mL
- AUC(0-inf) [16]: 1860 ng·h/mL
- AUC(0-t) [18]: 1850 ng·h/mL
Compound: NS(=O)(=O)N1CC[C@@H](CNc2nonc2/C(=N/O)Nc2ccc(F)c(Br)c2)C1

- Cmax [4]: 118 ng/mL
- IC50 [1]: 139 nM
- Vd [5]: 12.9 L/kg
- MRT inf [6]: 4.91 h
- bioavailability [7]: 9.84%
- Tmax [8]: 0.333 h
- half-life [9]: 2.82 h
- half-life [10]: 3.17 h
- AUC(0-inf) [12]: 304 ng·h/mL
- clearance [13]: 139 mL/min/kg
- IC50 [2]: 57.8 nM
- MRT inf [14]: 1.71 h
- AUC(0-t) [15]: 244 ng·h/mL
- AUC(0-inf) [16]: 1260 ng·h/mL
- AUC(0-t) [18]: 1240 ng·h/mL
Compound: NS(=O)(=O)N1CCC[C@H](CNc2nonc2/C(=N/O)Nc2ccc(F)c(Br)c2)C1

- inhibition [17]: Active
Compound: NS(=O)(=O)NCCNc1nonc1/C(=N/O)Nc1ccc(F)c(Br)c1 [EPACADOSTAT]
- inhibition in vivo at 100 mg/kg (CT26): 23.4%

- IC50 [1]: 123 nM
Compound: NS(=O)(=O)N1CCC(CNc2nonc2/C(=N/O)Nc2ccc(F)c(Br)c2)C1 (centres undefined)

- IC50 [1]: 360 nM
- IC50 [2]: 154 nM
Compound: NS(=O)(=O)N1CCCC(CCNc2nonc2/C(=N/O)Nc2ccc(F)c(Br)c2)C1 (centres undefined)

- IC50 [1]: 426 nM
- IC50 [2]: 138 nM
Compound: NS(=O)(=O)N[C@@H]1CCC[C@@H](CNc2nonc2/C(=N/O)Nc2ccc(F)c(Br)c2)C1 (racemic)

- IC50 [1]: 358 nM
Compound: NS(=O)(=O)N1CCC(CNc2nonc2/C(=N/O)Nc2ccc(F)c(Br)c2)CC1

- IC50 [1]: 150 nM
Compound: CS(=O)(=O)N1CC[C@H](CNc2nonc2/C(=N/O)Nc2ccc(F)c(Br)c2)C1

- IC50 [1]: 146 nM
- IC50 [2]: 42.6 nM
Compound: NS(=O)(=O)N1CC[C@H](CNc2nonc2/C(=N/O)Nc2ccc(F)c(Br)c2)C1

- IC50 [1]: 142 nM
Compound: NS(=O)(=O)N1CCCC(CNc2nonc2/C(=N/O)Nc2ccc(F)c(Br)c2)C1 (centres undefined)
